Tests used:
urokinase (u-PA) = urokinase (u-PA) (Homo sapiens, UniProt P00749); test: Fluorogenic enzyme assay (Example 5); type: biochemical; conditions: enzyme 100 nM, substrate 1 μM; for hydrolysis, u-PA (symbol N.D.): after 24 hrs
Procedure: (§1) Enzyme assays (except factor VIIa assays, see below) were conducted in 20 mM Tris, 150 mM NaCl, pH 7.4 (TBS) at room temperature (22° C.). The final volume for all reaction mixtures was 2.0 ml. Fluorogenic substrates were dissolved in DMSO to a stock concentration of 10 mM. The 10 mM stock solution was diluted in TBS to the final working concentration prior to all assays. Enzyme was added to mixtures containing buffer components and substrate and the initial rate of substrate hydrolysis was measured as the change in fluorescent intensity over time, corresponding to the generation of the particular 6-amino-1-naphthalenesulfonamide fluorophore from the provided substrate. Quantitation of substrate hydrolysis was accomplished by establishing a standard curve from the appropriate fluorescent moiety. Fluorescence was monitored (continuously or discontinuously) using a Perkin Elmer fluorescence spectrophotometer, model MPF-44A, equipped with a standard chart recorder. The fluorophore was detected using monochrometers set at an excitation wavelength of 352 nm and an emission wavelength of 470 nm. Light scattering artifacts were minimized using a 399 nm cut off filter in the emission light beam.
(§2) The kinetic constants of substrate hydrolysis were determined using the non-linear least squares regression analysis program ENZFITTER (Cambridge, UK). This program was used to iteratively fit initial rates of substrate hydrolysis to the Michaelis-Menten equation and the kinetic constants of substrate hydrolysis (Km) and (kcat) were calculated.

plasmin (Plm) = plasmin (Plm) (Homo sapiens, UniProt P00747); test: Fluorogenic enzyme assay (Example 5); type: biochemical; conditions: enzyme 100 nM, substrate 1 μM; for Time (min) for 5% hydrolysis, Plm: footnote b
Procedure: as §1, §2

[1] = target: tissue plasminogen activator (t-PA) (Homo sapiens, UniProt P00750); test: Fluorogenic enzyme assay (Example 5); type: biochemical; conditions: enzyme 100 nM, substrate 1 μM; for hydrolysis, t-PA (symbol N.D.): after 24 hrs; for Time (min) for 5% hydrolysis, t-PA: footnote b
Procedure: as §1, §2

thrombin (IIa) = target: T1, thrombin (IIa) (Homo sapiens, UniProt P00734); test: Fluorogenic enzyme assay (Example 5); type: biochemical; design: key to Hydrolysis kinetic constants, IIa (symbol b): Slow substrate hydrolysis, no kinetic constants calculated; conditions: for Hydrolysis kinetic constants, IIa (symbol b) / Km / kcat /Km, IIa / kcat, IIa: Table 7; for Time (min) for 10% hydrolysis, IIa: enzyme 100 nM, substrate 1 μM
T1 construct: 0.5 nM human thrombin (IIa)
Procedure: as §1, §2

factor Xa = factor Xa (Homo sapiens, UniProt P00742); test: Fluorogenic enzyme assay (Example 5); type: biochemical; conditions: for Km / kcat /Km, Xa / kcat, Xa: Table 7; for Time (min) for 10% hydrolysis, Xa: enzyme 100 nM, substrate 1 μM
Procedure: as §1, §2

[2] = target: activated protein C (APC) (Homo sapiens, UniProt P04070); test: Fluorogenic enzyme assay (Example 5); type: biochemical; design: key to Hydrolysis kinetic constants, APC (symbol b): Slow substrate hydrolysis, no kinetic constants calculated; conditions: for Hydrolysis kinetic constants, APC (symbol b) / Km / kcat /Km, APC / kcat, APC: Table 7; for Time (min) for 10% hydrolysis, APC: enzyme 100 nM, substrate 1 μM
Procedure: as §1, §2

[3] = Fluorescence of 6-amino-1-naphthalenesulfonamides and substrates; type: physicochemical; conditions: for Relative Fluorescence: TBS, pH 7.4, 22°C., 1 μM, relative to ANSNH(i-C4 H9), excitation 352 nm, emission 470 nm; for Emission Maxima: free fluorophore
Excerpt: Each of the 6-amino-1-naphthalenesulfonamide detecting groups, i.e., the free fluorophores, have excitation maxima near 350 nm with emission maxima ranging from 465 to 476 nm. Fluorescent measurements show a 2.2 fold range in the intensities of the fluorescent signals among the fifteen synthesized compounds. The 6-peptidylamino-1-naphthalenesulfonamide fluorogenic substrates have a relative fluorescent intensity at 470 nm which is less than 0.1% of that of the respective free fluorophore. Detection of the free fluorophore can be reliably achieved (>2× background) at a concentration of about 10^-9 M in the presence of about 10^-6 fluorogenic substrate.
^a Measured in TBS, pH 7.4. 22°C.. Concentration of ANSNR
R2 = 1 μM. Fluorescence is expressed relative of ANSNH(i-C4
H9). Excitation wavelength = 352 nm, Emission wavelength = 470 nm.

Sequence of factor Xa (P00742 235-488 limits assumed): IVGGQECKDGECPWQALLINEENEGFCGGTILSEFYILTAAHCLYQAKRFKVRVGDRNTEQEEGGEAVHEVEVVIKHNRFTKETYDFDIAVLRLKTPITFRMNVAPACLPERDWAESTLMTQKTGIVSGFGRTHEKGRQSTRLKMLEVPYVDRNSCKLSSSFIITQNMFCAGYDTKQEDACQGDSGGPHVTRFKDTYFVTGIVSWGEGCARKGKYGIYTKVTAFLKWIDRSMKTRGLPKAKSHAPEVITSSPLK
Sequence of factor Xa (P00742 41-179 limits assumed): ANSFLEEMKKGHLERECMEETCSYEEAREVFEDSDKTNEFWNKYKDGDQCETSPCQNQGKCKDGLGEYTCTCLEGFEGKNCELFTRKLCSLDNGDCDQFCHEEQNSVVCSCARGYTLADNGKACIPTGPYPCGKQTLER
Sequence of activated protein C (APC) (P04070 212-461 limits assumed): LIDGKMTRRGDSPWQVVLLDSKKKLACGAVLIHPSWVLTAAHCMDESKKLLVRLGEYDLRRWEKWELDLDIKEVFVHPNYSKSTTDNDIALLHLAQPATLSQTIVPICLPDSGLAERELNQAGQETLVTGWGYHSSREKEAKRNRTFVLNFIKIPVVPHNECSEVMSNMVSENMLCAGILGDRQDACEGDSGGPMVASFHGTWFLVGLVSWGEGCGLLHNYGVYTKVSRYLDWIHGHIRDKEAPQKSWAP
Sequence of activated protein C (APC) (P04070 43-197 limits assumed): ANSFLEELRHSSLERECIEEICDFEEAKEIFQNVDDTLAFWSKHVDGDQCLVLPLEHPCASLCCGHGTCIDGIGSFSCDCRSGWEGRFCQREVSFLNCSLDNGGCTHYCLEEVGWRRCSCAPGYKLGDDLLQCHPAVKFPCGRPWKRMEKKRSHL
Sequence of tissue plasminogen activator (t-PA) (P00750 36-562, species assumed): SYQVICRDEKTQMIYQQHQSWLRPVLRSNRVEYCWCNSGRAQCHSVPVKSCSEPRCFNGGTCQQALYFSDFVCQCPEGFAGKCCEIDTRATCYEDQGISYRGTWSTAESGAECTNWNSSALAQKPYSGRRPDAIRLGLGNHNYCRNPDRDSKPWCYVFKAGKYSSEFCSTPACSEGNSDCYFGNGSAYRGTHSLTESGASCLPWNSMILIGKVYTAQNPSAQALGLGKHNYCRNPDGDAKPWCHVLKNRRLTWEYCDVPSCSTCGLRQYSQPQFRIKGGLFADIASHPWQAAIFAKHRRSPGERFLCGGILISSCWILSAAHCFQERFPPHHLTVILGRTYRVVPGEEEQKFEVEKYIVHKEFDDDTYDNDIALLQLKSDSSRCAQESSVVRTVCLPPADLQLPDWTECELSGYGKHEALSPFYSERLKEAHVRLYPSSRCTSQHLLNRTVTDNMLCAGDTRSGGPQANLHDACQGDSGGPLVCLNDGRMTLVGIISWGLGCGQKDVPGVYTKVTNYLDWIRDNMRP
Sequence of plasmin (Plm) (P00747 581-810 limits assumed, species assumed): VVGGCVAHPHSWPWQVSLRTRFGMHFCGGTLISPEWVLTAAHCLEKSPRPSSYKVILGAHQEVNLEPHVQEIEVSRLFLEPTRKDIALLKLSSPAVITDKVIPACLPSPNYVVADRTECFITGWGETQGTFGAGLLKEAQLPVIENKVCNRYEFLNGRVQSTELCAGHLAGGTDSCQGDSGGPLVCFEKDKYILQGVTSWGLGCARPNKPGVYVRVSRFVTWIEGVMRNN
Sequence of plasmin (Plm) (P00747 97-580 limits assumed, species assumed): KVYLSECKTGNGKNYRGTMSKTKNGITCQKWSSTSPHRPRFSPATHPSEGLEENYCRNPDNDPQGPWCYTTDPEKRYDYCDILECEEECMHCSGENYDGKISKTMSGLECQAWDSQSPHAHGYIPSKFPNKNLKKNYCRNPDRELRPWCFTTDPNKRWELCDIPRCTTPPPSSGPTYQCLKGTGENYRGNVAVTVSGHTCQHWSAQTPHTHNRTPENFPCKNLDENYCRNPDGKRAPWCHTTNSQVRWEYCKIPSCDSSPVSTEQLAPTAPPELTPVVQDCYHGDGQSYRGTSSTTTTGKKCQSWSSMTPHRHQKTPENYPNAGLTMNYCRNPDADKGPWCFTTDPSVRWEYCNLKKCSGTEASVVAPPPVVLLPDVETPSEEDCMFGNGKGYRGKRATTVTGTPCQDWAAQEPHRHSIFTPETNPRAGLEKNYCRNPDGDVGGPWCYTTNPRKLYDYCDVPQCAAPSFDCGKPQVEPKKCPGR

Time (min) for 10% hydrolysis, IIa (thrombin (IIa)) [min] | Km (factor Xa) [µM] | kcat /Km, Xa (factor Xa) [M⁻¹ s⁻¹] | kcat, Xa (factor Xa) [s⁻¹] | Time (min) for 10% hydrolysis, Xa (factor Xa) [min] | Time (min) for 10% hydrolysis, APC [2] [min] | Relative Fluorescence [3] | Emission Maxima [3] [nm] | SMILES | other results
90 | 427 | 293 | 0.13 | 20 | 813 | – | – | Br.N=C(N)NCCC[C@H](NC(=O)OCc1ccccc1)C(=O)Nc1ccc2c(S(=O)(=O)N3CCCCCC3)cccc2c1 [(N^α -Z)ArgANSNR1 R2; (CH2)6] | hydrolysis, u-PA (symbol N.D.) (urokinase (u-PA)): N.D. (Less than 5% hydrolysis after 24 hrs.); Time (min) for 5% hydrolysis, Plm (plasmin (Plm)): 770 min; hydrolysis, t-PA (symbol N.D.) [1]: N.D. (Less than 5% hydrolysis after 24 hrs.); Hydrolysis kinetic constants, IIa (symbol b) (thrombin (IIa)): b; Hydrolysis kinetic constants, APC (symbol b) [2]: b
165 | 200 | 1290 | 0.26 | 14 | 1080 | – | – | Br.CCN(CC)S(=O)(=O)c1cccc2cc(NC(=O)[C@H](CCCNC(=N)N)NC(=O)OCc3ccccc3)ccc12 [(N^α -Z)ArgANSNR1 R2; C2 H5; C2 H5, 6-(N^α -benzyloxycarbonyl-L-arginyl)amino-1-(N,N-diethyl)napthalenesulfonamide hydrobromides] | hydrolysis, u-PA (symbol N.D.) (urokinase (u-PA)): N.D. (Less than 5% hydrolysis after 24 hrs.); Time (min) for 5% hydrolysis, Plm (plasmin (Plm)): 1370 min; hydrolysis, t-PA (symbol N.D.) [1]: N.D. (Less than 5% hydrolysis after 24 hrs.); Hydrolysis kinetic constants, IIa (symbol b) (thrombin (IIa)): b
45 | 91.4 | 1020 | 0.09 | 15 | 200 | – | – | Br.CN(C)S(=O)(=O)c1cccc2cc(NC(=O)[C@H](CCCNC(=N)N)NC(=O)OCc3ccccc3)ccc12 [(N^α -Z)ArgANSNR1 R2; CH3; CH3] | hydrolysis, u-PA (symbol N.D.) (urokinase (u-PA)): N.D. (Less than 5% hydrolysis after 24 hrs.); Time (min) for 10% hydrolysis, Plm (plasmin (Plm)): 1140 min; hydrolysis, t-PA (symbol N.D.) [1]: N.D. (Less than 5% hydrolysis after 24 hrs.); Km (thrombin (IIa)): 22.6 µM; kcat /Km, IIa (thrombin (IIa)): 630 M⁻¹ s⁻¹; kcat, IIa (thrombin (IIa)): 0.01 s⁻¹; Hydrolysis kinetic constants, APC (symbol b) [2]: b
27 | 125 | 593 | 0.07 | 40 | 15 | – | – | Br.CCCNS(=O)(=O)c1cccc2cc(NC(=O)[C@H](CCCNC(=N)N)NC(=O)OCc3ccccc3)ccc12 [(N^α -Z)ArgANSNR1 R2; H; C3 H7] | Time (min) for 10% hydrolysis, u-PA (urokinase (u-PA)): 220 min; Time (min) for 5% hydrolysis, Plm (plasmin (Plm)): 1620 min; hydrolysis, t-PA (symbol N.D.) [1]: N.D. (Less than 5% hydrolysis after 24 hrs.); Km (thrombin (IIa)): 22.2 µM; kcat /Km, IIa (thrombin (IIa)): 1580 M⁻¹ s⁻¹; kcat, IIa (thrombin (IIa)): 0.04 s⁻¹; Km [2]: 320 µM; kcat /Km, APC [2]: 1470 M⁻¹ s⁻¹; kcat, APC [2]: 0.47 s⁻¹
30 | 36.8 | 979 | 0.04 | 45 | 12 | – | – | Br.CCCCCNS(=O)(=O)c1cccc2cc(NC(=O)[C@H](CCCNC(=N)N)NC(=O)OCc3ccccc3)ccc12 [(N^α -Z)ArgANSNR1 R2; H; C5 H11] | Time (min) for 10% hydrolysis, u-PA (urokinase (u-PA)): 43 min; Time (min) for 10% hydrolysis, Plm (plasmin (Plm)): 510 min; Time (min) for 5% hydrolysis, t-PA [1]: 1280 min; Km (thrombin (IIa)): 41.4 µM; kcat /Km, IIa (thrombin (IIa)): 242 M⁻¹ s⁻¹; kcat, IIa (thrombin (IIa)): 0.01 s⁻¹; Km [2]: 436 µM; kcat /Km, APC [2]: 1830 M⁻¹ s⁻¹; kcat, APC [2]: 0.8 s⁻¹
38 | 160 | 714 | 0.11 | 25 | 120 | – | – | Br.CNS(=O)(=O)c1cccc2cc(NC(=O)[C@H](CCCNC(=N)N)NC(=O)OCc3ccccc3)ccc12 [(N^α -Z)ArgANSNR1 R2; H; CH3] | Time (min) for 10% hydrolysis, u-PA (urokinase (u-PA)): 660 min; Time (min) for 5% hydrolysis, Plm (plasmin (Plm)): 1620 min; Time (min) for 5% hydrolysis, t-PA [1]: 1280 min; Km (thrombin (IIa)): 62.5 µM; kcat /Km, IIa (thrombin (IIa)): 640 M⁻¹ s⁻¹; kcat, IIa (thrombin (IIa)): 0.04 s⁻¹; Hydrolysis kinetic constants, APC (symbol b) [2]: b
17 | 213 | 198 | 0.04 | 46 | 12 | – | – | Br.N=C(N)NCCC[C@H](NC(=O)OCc1ccccc1)C(=O)Nc1ccc2c(S(=O)(=O)NCc3ccccc3)cccc2c1 [(N^α -Z)ArgANSNR1 R2; H; benzyl] | Time (min) for 10% hydrolysis, u-PA (urokinase (u-PA)): 19 min; Time (min) for 10% hydrolysis, Plm (plasmin (Plm)): 330 min; Time (min) for 10% hydrolysis, t-PA [1]: 510 min; Km (thrombin (IIa)): 41 µM; kcat /Km, IIa (thrombin (IIa)): 1680 M⁻¹ s⁻¹; kcat, IIa (thrombin (IIa)): 0.07 s⁻¹; Km [2]: 218 µM; kcat /Km, APC [2]: 1050 M⁻¹ s⁻¹; kcat, APC [2]: 0.23 s⁻¹
– | – | – | – | – | – | 68 | 473 | Nc1ccc2c(S(=O)(=O)N3CCCCC3)cccc2c1 [ANSNR1 R2; (CH2)5] | –
– | – | – | – | – | – | 96 | 469 | Nc1ccc2c(S(=O)(=O)N3CCCCCC3)cccc2c1 [ANSNR1 R2; (CH2)6] | –
– | – | – | – | – | – | 89 | 470 | CCN(CC)S(=O)(=O)c1cccc2cc(N)ccc12 [ANSNR1 R2; C2 H5; C2 H5, 6-amino-1-(N,N-diethyl)naphthalenesulfonamide] | –
– | – | – | – | – | – | 65 | 472 | CN(C)S(=O)(=O)c1cccc2cc(N)ccc12 [ANSNR1 R2; CH3; CH3] | –
– | – | – | – | – | – | 78 | 466 | CCNS(=O)(=O)c1cccc2cc(N)ccc12 [ANSNR1 R2; H; C2 H5] | –
– | – | – | – | – | – | 93 | 470 | CCCNS(=O)(=O)c1cccc2cc(N)ccc12 [ANSNR1 R2; H; C3 H7] | –
– | – | – | – | – | – | 63 | 467 | CCCCNS(=O)(=O)c1cccc2cc(N)ccc12 [ANSNR1 R2; H; C4 H9] | –
– | – | – | – | – | – | 90 | 469 | CCCCCNS(=O)(=O)c1cccc2cc(N)ccc12 [ANSNR1 R2; H; C5 H11] | –
– | – | – | – | – | – | 92 | 468 | CNS(=O)(=O)c1cccc2cc(N)ccc12 [ANSNR1 R2; H; CH3] | –
– | – | – | – | – | – | 75 | 467 | Nc1ccc2c(S(=O)(=O)NCc3ccccc3)cccc2c1 [ANSNR1 R2; H; benzyl] | –
– | – | – | – | – | – | 101 | 466 | Nc1ccc2c(S(=O)(=O)NC3CCCCC3)cccc2c1 [ANSNR1 R2; H; cyclo-C6 H11] | –
– | – | – | – | – | – | 76 | 468 | CC(C)NS(=O)(=O)c1cccc2cc(N)ccc12 [ANSNR1 R2; H; i-C3 H7] | –
– | – | – | – | – | – | 100 | 468 | CC(C)CNS(=O)(=O)c1cccc2cc(N)ccc12 [ANSNR1 R2; H; i-C4 H9] | –
– | – | – | – | – | – | 112 | 465 | CC(C)(C)NS(=O)(=O)c1cccc2cc(N)ccc12 [ANSNR1 R2; H; t-C4 H9] | –
– | – | – | – | – | – | 41 | 476 | Nc1ccc2c(S(=O)(=O)N3CCOCC3)cccc2c1 [ANSNR1 R2; morpholyl] | –
